# Read-outs that look alike come from different tables or passages of the source.
# Key:
# Type in all cases: cell-based
# [1] = molecular target: T1, protein kinases (human kinome) (Homo sapiens, UniProt O14965)
# T1 sequence (O14965 1-403): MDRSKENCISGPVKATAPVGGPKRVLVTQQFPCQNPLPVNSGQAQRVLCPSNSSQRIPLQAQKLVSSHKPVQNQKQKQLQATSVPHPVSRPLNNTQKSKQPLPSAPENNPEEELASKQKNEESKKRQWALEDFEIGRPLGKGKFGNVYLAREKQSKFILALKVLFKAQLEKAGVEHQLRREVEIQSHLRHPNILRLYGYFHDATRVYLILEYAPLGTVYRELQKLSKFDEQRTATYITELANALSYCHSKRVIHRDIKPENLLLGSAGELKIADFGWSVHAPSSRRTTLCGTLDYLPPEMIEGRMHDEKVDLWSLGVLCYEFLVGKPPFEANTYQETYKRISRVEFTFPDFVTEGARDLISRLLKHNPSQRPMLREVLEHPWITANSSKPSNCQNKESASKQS
# [2] = molecular target: T2, protein kinases (human kinome) (Homo sapiens, UniProt O14976); conditions: for logFC GAK: GAK (O14976)
# T2 sequence (O14976 1-1311): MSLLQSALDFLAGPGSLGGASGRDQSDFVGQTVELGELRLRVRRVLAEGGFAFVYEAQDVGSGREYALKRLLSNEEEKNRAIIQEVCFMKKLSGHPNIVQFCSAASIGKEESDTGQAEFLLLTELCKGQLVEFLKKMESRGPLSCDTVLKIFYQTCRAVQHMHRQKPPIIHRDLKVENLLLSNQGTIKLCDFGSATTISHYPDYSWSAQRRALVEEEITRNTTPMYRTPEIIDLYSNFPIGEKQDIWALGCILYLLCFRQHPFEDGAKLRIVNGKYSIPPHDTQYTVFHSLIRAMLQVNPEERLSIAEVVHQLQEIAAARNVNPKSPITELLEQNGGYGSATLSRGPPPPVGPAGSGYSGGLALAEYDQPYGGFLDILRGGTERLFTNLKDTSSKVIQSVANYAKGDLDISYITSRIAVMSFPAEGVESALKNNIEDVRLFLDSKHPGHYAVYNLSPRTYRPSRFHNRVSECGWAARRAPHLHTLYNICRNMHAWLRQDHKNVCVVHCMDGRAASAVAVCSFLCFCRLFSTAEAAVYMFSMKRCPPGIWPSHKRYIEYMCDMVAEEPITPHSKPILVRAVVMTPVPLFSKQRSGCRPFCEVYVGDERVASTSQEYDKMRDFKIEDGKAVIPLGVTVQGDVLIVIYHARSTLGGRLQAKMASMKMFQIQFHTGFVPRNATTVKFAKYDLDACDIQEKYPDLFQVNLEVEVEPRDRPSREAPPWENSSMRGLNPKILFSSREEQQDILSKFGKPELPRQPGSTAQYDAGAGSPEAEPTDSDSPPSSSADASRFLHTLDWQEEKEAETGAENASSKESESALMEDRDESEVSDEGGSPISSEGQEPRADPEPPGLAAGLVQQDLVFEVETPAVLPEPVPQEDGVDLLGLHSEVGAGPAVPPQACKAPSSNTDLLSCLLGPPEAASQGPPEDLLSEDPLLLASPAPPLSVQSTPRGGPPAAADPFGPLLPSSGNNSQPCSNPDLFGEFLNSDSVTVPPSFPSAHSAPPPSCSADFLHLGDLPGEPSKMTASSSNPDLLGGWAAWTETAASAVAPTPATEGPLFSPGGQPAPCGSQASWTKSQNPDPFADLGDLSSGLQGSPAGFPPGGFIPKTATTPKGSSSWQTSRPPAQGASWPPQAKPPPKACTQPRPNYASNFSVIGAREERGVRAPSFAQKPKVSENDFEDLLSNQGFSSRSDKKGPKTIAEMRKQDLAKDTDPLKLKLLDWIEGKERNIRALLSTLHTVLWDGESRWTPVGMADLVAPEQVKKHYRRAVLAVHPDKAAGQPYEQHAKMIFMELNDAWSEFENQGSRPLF
# [3] = molecular target: protein kinases (human kinome) (Homo sapiens, UniProt P11802)
# protein kinases (human kinome) (Homo sapiens, UniProt P11802), sequence (P11802 whole entry): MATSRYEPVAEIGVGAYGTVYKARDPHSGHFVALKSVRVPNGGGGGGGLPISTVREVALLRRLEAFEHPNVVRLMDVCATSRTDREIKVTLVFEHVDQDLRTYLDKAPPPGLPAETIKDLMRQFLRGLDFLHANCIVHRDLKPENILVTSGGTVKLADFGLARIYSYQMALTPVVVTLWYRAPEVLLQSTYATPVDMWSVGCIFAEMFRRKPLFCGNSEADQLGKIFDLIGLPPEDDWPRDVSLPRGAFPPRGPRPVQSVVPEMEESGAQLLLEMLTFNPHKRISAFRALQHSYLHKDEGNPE
# [4] = molecular target: protein kinases (human kinome) (Homo sapiens, UniProt P16591); conditions: for logFC of FER (P16591-1): down; for logFC of FER: FER P16591-1
# protein kinases (human kinome) (Homo sapiens, UniProt P16591), sequence (P16591 whole entry): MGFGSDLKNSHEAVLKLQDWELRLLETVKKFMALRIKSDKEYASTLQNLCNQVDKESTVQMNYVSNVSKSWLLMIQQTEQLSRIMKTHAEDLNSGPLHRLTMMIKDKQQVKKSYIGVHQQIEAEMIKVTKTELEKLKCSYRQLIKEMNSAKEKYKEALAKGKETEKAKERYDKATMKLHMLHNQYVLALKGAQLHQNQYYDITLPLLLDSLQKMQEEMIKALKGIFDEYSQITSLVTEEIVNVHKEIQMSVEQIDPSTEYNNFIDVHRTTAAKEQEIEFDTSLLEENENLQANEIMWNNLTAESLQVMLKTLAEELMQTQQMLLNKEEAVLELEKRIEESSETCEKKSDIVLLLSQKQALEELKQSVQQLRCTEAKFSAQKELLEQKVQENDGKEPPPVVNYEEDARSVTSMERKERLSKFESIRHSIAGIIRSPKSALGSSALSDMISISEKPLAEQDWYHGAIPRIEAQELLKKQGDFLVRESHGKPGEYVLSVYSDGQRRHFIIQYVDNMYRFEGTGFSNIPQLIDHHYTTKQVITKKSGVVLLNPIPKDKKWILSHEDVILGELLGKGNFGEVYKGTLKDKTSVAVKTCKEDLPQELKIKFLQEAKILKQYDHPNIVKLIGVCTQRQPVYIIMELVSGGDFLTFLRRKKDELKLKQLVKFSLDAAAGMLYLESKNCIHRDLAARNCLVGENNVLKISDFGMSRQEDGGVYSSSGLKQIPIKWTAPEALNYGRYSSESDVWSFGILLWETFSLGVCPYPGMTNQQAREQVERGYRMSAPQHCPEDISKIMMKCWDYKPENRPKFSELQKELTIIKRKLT
# [5] = molecular target: protein kinases (human kinome) (Homo sapiens, UniProt P51451); conditions: BLK (P51451), direction down
# protein kinases (human kinome) (Homo sapiens, UniProt P51451), sequence (P51451 whole entry): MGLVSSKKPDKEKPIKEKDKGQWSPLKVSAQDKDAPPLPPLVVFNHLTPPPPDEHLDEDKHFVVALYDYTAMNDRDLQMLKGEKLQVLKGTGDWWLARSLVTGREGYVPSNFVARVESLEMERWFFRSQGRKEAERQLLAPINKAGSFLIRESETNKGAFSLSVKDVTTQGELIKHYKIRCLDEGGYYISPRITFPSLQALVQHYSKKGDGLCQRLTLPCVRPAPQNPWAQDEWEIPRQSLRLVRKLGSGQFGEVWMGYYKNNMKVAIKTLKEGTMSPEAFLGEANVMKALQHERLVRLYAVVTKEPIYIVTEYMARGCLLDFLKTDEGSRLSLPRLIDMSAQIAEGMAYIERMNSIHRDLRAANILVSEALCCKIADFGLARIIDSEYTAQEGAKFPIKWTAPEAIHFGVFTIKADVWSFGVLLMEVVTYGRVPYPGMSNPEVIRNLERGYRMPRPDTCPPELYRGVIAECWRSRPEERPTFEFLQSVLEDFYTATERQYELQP
structure (smiles),measurement,setting,value
CC(C)S(=O)(=O)c1ccccc1Nc1nc(Nc2ccc(N3CCN(CCOCCNC(=O)CNc4cccc5c4C(=O)N(C4CCC(=O)NC4=O)C5=O)CC3)cc2)ncc1Cl (stereo not shown) [SK.3.91],logFC AURKA (O14965),"[1]; Experiment wp160, 2 hr",−0.8456
same,logFC AURKA (O14965),[1]; Experiment wp172,−2.048
same,logFC AURKA (O14965),[1]; experiment wp016,−1.908
same,logFC AURKA (O14965),"[1]; experiment wp016, 1 uM",−3.024
same,logFC AURKA (O14965),[1]; experiment wp103,−1.587
same,logFC AURKA (O14965),[1]; experiment wp105,−1.837
same,logFC AURKA (O14965),[1]; experiment wp107,−3.069
same,logFC AURKA (O14965),[1]; experiment wp114,−1.228
same,logFC AURKA (O14965),"[1]; experiment wp133, 1 hr",−1.329
same,logFC AURKA (O14965),"[1]; experiment wp133, 2 hr",−2.092
same,logFC AURKA (O14965),"[1]; experiment wp133, 4 hr",−3.745
same,logFC AURKA (O14965),"[1]; experiment wp160, 1 hr",−0.547
same,logFC AURKA (O14965),"[1]; experiment wp160, 4 hr",−1.391
same,logFC of GAK (O14976),"[2]; Experiment wp016, 1 uM, down",−0.3526
same,logFC of GAK (O14976),"[2]; Experiment wp016, down",−0.5011
same,logFC of GAK (O14976),"[2]; Experiment wp105, down",−0.3832
same,logFC GAK,"[2]; direction down, experiment wp016",−0.5011
same,logFC GAK,"[2]; direction down, experiment wp018, 1 uM",−0.3526
same,logFC GAK,"[2]; direction down, experiment wp105",−0.3832
same,logFC GAK,"[2]; direction down, experiment wp160, 4 hr",−0.3241
same,logFC GAK,"[2]; experiment wp160, 4 hr, down",−0.3241
same,logFC CDK4 (P11802),"[3]; Experiment wp160, 2 hr",−0.9104
same,logFC CDK4 (P11802),[3]; experiment wp016,−1.161
same,logFC CDK4 (P11802),"[3]; experiment wp016, 1 uM",−1.429
same,logFC CDK4 (P11802),[3]; experiment wp103,−1.029
same,logFC CDK4 (P11802),[3]; experiment wp105,−0.7995
same,logFC CDK4 (P11802),[3]; experiment wp107,−1.272
same,logFC CDK4 (P11802),[3]; experiment wp114,−0.5605
same,logFC CDK4 (P11802),"[3]; experiment wp133, 2 hr",−0.7484
same,logFC CDK4 (P11802),"[3]; experiment wp133, 4 hr",−1.292
same,logFC CDK4 (P11802),"[3]; experiment wp160, 1 hr",−0.4329
same,logFC CDK4 (P11802),"[3]; experiment wp160, 4 hr",−1.353
same,logFC of FER (P16591-1),"[4]; Experiment wp016, 1 uM",−3.321
same,logFC of FER (P16591-1),[4]; Experiment wp016,−2.645
same,logFC of FER (P16591-1),[4]; Experiment wp103,−2.81
same,logFC of FER (P16591-1),[4]; Experiment wp105,−2.857
same,logFC of FER (P16591-1),[4]; Experiment wp107,−2.657
same,logFC of FER (P16591-1),"[4]; Experiment wp133, 1 hr",−1.132
same,logFC of FER (P16591-1),"[4]; Experiment wp133, 2 hr",−2.153
same,logFC of FER (P16591-1),"[4]; Experiment wp133, 4 hr",−2.426
same,logFC of FER (P16591-1),"[4]; Experiment wp160, 1 hr",−0.8534
same,logFC of FER (P16591-1),"[4]; Experiment wp160, 2 hr",−1.88
same,logFC of FER (P16591-1),"[4]; Experiment wp160, 4 hr",−1.987
same,logFC of FER,[4]; experiment wp016,−2.646
same,logFC of FER,"[4]; experiment wp016, 1 uM",−3.321
same,logFC of FER,[4]; experiment wp103,−2.81
same,logFC of FER,[4]; experiment wp105,−2.857
same,logFC of FER,[4]; experiment wp107,−2.657
same,logFC of FER,"[4]; experiment wp133, 1 hr",−1.132
same,logFC of FER,"[4]; experiment wp133, 2 hr",−2.153
same,logFC of FER,"[4]; experiment wp133, 4 hr",−2.426
same,logFC of FER,"[4]; experiment wp160, 1 hr",−0.8534
same,logFC of FER,"[4]; experiment wp160, 2 hr",−1.88
same,logFC of FER,"[4]; experiment wp160, 4 hr",−1.987
same,logFC BLK,[5]; experiment wp103,−1.625
same,logFC BLK,[5]; experiment wp107,−1.649
same,logFC BLK,"[5]; experiment wp133, 1 hr",−0.3727
same,logFC BLK,"[5]; experiment wp133, 2 hr",−0.8217
